Test results from PMC11324046, “Second-generation piperazine derivatives as promising radiation countermeasures” (RSC Medicinal Chemistry, 2024).

What was measured:
Format in all cases: cell-based
[1] = WST-1 proliferation assay, SAOS-2; settings: human, SAOS-2 cells (osteosarcoma), vs 0.1% DMSO control = 100%, mean ± standard deviation
Description: (§1) A thorough analysis of antiproliferative activity was performed across various cell culture types representing different histotypes: leukemia (Jurkat, MOLT-4), lung adenocarcinoma (A549), colorectal adenocarcinoma (HT-29), pancreatic carcinoma (PANC-1), breast adenocarcinoma (MCF-7), osteosarcoma (SAOS-2), and one non-cancerous cell line (fetal lung fibroblasts MRC-5). The cell lines were exposed to the newly synthesized compounds at a concentration of 100 μM for 48 h in a single-dose treatment. Changes in cell proliferation compared to the vehicle 0.1% dimethyl sulfoxide (DMSO) control were determined using the WST-1 assay, which is based on mitochondrial dehydrogenase metabolic activities. […] The overall cytotoxic activity of each compound was expressed as growth percent (GP) – the mean of the proliferation of all cell lines treated with the same compound.
(§2) Selected human tumor and non-tumor cell lines Jurkat (acute T-cell leukemia), MOLT-4 (acute lymphoblastic leukemia), A549 (lung carcinoma), HT-29 (colorectal adenocarcinoma), PANC-1 (pancreas epithelioid carcinoma), MCF-7 (breast adenocarcinoma), SAOS-2 (osteosarcoma) and MRC-5 (normal lung fibroblasts) were purchased from either American Type Culture Collection (ATCC; VA, USA) or Sigma-Aldrich (St. Louis, MO, USA) and cultured according to the provider's culture method guidelines. All cell lines were maintained at 37 °C in a humidified 5% carbon dioxide and 95% air incubator. Cells in the maximum range of either 10 passages for the adherent cell lines (A549, HT-29, PANC-1, MCF-7, SAOS-2, and MRC-5), or 20 passages for suspension cell lines (Jurkat, MOLT-4,) and in an exponential growth phase were used for this study. Screening of the antiproliferative effect and growth percent calculation were conducted as follows: each cell line was seeded at previously established optimal density (1–50 × 10^3 cells per well) in a 96-well plate (TPP, Trasadingen, Switzerland) and cells were allowed to settle overnight. Cells were treated for 48 h with compounds at a final concentration of 100 μM. At the end of the cultivation period, the WST-1 proliferation assay (Roche, Basel, Switzerland) was performed according to the manufacturer's protocol. The absorbance was measured at 440 nm using a Tecan Spark multimode microplate reader (Tecan, Mannedorf, Switzerland). Each value is the mean of three independent experiments and represents the percentage of proliferation (100% cell proliferation for 0.1% DMSO mock-treated control cells). The GP value was calculated for each compound tested. GP represents the mean of the percentage proliferation decrease of all cell lines treated with the same compound.

[2] = WST-1 proliferation assay, MCF-7; settings: human, MCF-7 cells (breast adenocarcinoma), vs 0.1% DMSO control = 100%, mean ± standard deviation
Description: as §1, §2

[3] = system: Whole blood from healthy human donors; experiment: Dicentric chromosome assay (DCA); settings: 3 Gy gamma
Description: The radioprotective effect of eight compounds was assessed using the cytogenetic method of DCA. DCA is known for its high sensitivity to radiation exposure and its specificity, and is thus considered a gold standard for biological dosimetry. It is also applicable to reveal the radioprotective potential of substances, as their effect is to protect DNA from forming dicentric chromosomes after IR exposure. This assay included six newly synthesized substances as well as amifostine (WR2721) and its active form (WR1065). WR2721 and WR1065 served as benchmarks, allowing us to measure the radioprotective effect of our compounds against these well-established radioprotectors. Whole blood from healthy human donors was utilized for DCA, and it was irradiated with 3 Gy gamma radiation after exposure to the tested compounds. Each experiment included irradiated and non-irradiated controls. The experiments were conducted at two different concentrations of the substances. For the newly synthesized compounds, 100 μM and an optimal non-toxic concentration which varied between 200–1000 μM were used. […] The results were interpreted as the number of dicentric chromosomes per cell.
To express the radioprotective effect the radioprotection factor (RF) was calculated as the […] (Table 2). RF expresses how many-fold the DC count in the sample decreased compared to the irradiated control.
Blood samples from healthy male donors were taken in heparinized tubes, with informed consent and the approval of a local ethics committee. Blood samples (1 ml) were treated with eight different substances (WR2721, WR1065, and 1–6) in two different concentrations. Non-treated irradiated and non-treated non-irradiated controls were included. All samples were exposed to a single dose of 3 Gy of gamma radiation (at the dose rate of 0.6 Gy min^−1, using the ^60Co Chisobalt, Chirana, Prague, Czech Republic). […] The dose of 3 Gy was selected to ensure a sufficient quantity of dicentric chromosomes in lymphocytes. Immediately after irradiation, the samples were placed in a humidified atmosphere with 5% CO2 at 37 °C for 30 min. Treated and irradiated blood samples were added to T-25 cultivation flasks containing 10 ml RPMI 1640 with 20% fetal bovine serum and 2% phytohaemagglutinin (all Gibco by Thermo Fisher Scientific, Waltham, MA, USA). Colcemid at a final concentration of 0.25 μg ml^−1 (Gibco by Thermo Fisher Scientific, Waltham, MA, USA) was added to each culture tube 48 h after culture initiation. Cells were cultivated for another 2 h and then harvested.
At the harvest time (total time 50 h), cell pellets obtained after centrifugation at 600 × g for 3 min were resuspended and treated with 10 ml of prewarmed 0.075 M solution of potassium chloride (Gibco by Thermo Fisher Scientific, Waltham, MA, USA) for 20 min. After another centrifugation, cells were treated three times with fixative solution consisting of 3 : 1 (v/v) methanol : acetic acid (penta Chemicals, Prague, Czech Republic). Fixed cells were dropped on ice-cold microscope slides, air-dried overnight, and stained with 5% Giemsa solution (P-Lab, Prague, Czech Republic) for 6 min. Prepared slides were evaluated using automated metaphase finding systems. The slides with metaphases were analyzed by Axio Imager 2 (Carl Zeiss Microscopy GmbH, Göttingen, Germany) and Metafer 4 software (MetaSystems Hard & Software GmbH, Altlußheim, Germany). At first, the images of the metaphases in lower magnification were acquired (MSearch TL mode). Following that, the images of good-quality metaphases in higher resolution were acquired (AutoCapt mode). The data obtained were analyzed manually (manual selection of good-quality metaphases and dicentric chromosome detection).

[4] = WST-1 proliferation assay, MRC-5; settings: human, MRC-5 cells (normal lung fibroblasts), vs 0.1% DMSO control = 100%, mean ± standard deviation
Description: as §1, §2

[5] = WST-1 proliferation assay, MOLT-4; settings: human, MOLT-4 cells (acute lymphoblastic leukemia), vs 0.1% DMSO control = 100%, mean ± standard deviation
Description: as §1, §2

[6] = WST-1 proliferation assay, Jurkat; settings: human, Jurkat cells (acute T-cell leukemia), vs 0.1% DMSO control = 100%, mean ± standard deviation
Description: as §1, §2

[7] = 100 μM, 60 min pre-exposure, lower concentrations experiment
[8] = 500 μM (optimal non-toxic concentration), 60 min pre-exposure
[9] = 10 μM, 30 min pre-exposure, lower concentrations experiment
[10] = 100 μM, 30 min pre-exposure, higher concentrations experiment

SMILES	viability at 48 h, 100 µM [1]	viability at 48 h, 100 µM [2]	RF (radioprotection factor) [3, 7]	RF (radioprotection factor) [3, 8]	viability at 48 h, 100 µM [4]	viability at 48 h, 100 µM [5]	viability at 48 h, 100 µM [6]	RF (radioprotection factor) [3, 9]	RF (radioprotection factor) [3, 10]	RF (radioprotection factor) ([3]; 200 μM (optimal non-toxic concentration), 60 min pre-exposure)
COc1ccc(OCC(O)CN2CCN(CCO)CC2)c([N+](=O)[O-])c1 (stereo not shown) [Compound 2, 1-(4-(2-Hydroxyethyl)piperazin-1-yl)-3-(4-methoxy-2-nitrophenoxy)propan-2-ol]	103 ± 9%	97 ± 8%	1.23	1.97	105 ± 1%	90 ± 7%	98 ± 3%	–	–	–
NCCCNCCSP(=O)(O)O [WR2721, amifostine, reference compound]	9 ± 3%	7 ± 2%	–	–	8 ± 4%	71 ± 21%	10 ± 12%	1.33	1.45	–
O=[N+]([O-])c1ccc(OCC(O)CN2CCN(CCO)CC2)c(F)c1 (stereo not shown) [Compound 3, 1-(4-(2-Hydroxyethyl)piperazin-1-yl)-3-(2-fluoro-4-nitrophenoxy)propan-2-ol]	92 ± 14%	91 ± 12%	2.43	4.16	103 ± 6%	84 ± 11%	92 ± 4%	–	–	–
NCCCNCCS [WR1065, reference compound]	7 ± 4%	2%	–	–	3 ± 1%	3 ± 3%	1%	1.59	1.96	–
OCCN1CCN(CC(O)COc2ccc(F)cc2)CC1 (stereo not shown) [Compound 4, 1-(4-(2-Hydroxyethyl)piperazin-1-yl)-3-(4-fluorophenoxy)propan-2-ol]	102 ± 6%	102 ± 5%	1.65	–	103 ± 2%	102 ± 16%	100 ± 3%	–	–	–
COc1cc([N+](=O)[O-])ccc1OCC(O)CN1CCN(CCO)CC1 (stereo not shown) [Compound 1, 1-(4-(2-Hydroxyethyl)piperazin-1-yl)-3-(2-methoxy-4-nitrophenoxy)propan-2-ol]	101 ± 16%	100 ± 9%	1.42	1.97	111 ± 9%	92 ± 8%	91 ± 2%	–	–	–
OCCN1CCN(CC(O)COc2cccc(Cl)c2)CC1 (stereo not shown) [Compound 6, 1-(4-(2-Hydroxyethyl)piperazin-1-yl)-3-(3-chlorophenoxy)propan-2-ol]	120 ± 26%	86 ± 12%	2.1	2.69	97 ± 1%	89 ± 16%	89 ± 5%	–	–	–
O=[N+]([O-])c1cc(OCC(O)CN2CCN(CCO)CC2)ccc1Cl (stereo not shown) [Compound 5, 1-(4-(2-Hydroxyethyl)piperazin-1-yl)-3-(4-chloro-3-nitrophenoxy)propan-2-ol]	89 ± 3%	104 ± 11%	1.65	–	98 ± 3%	84 ± 8%	85 ± 3%	–	–	1.91
